Patent US20130267532A1, “CYCLIC AMIDE COMPOUNDS AND THEIR USE IN THE TREATMENT OF DISEASE” (priority 2010, published 2013)
pEC50: −log10 of the molar value.

Target: T1, Recombinant human TLR7 (Homo sapiens, UniProt Q9NYK1)
T1 construct: expressed in transfected cells; host or cells: HEK293 cell line stably expressing the pNiFty2-SEAP reporter plasmid
T1 sequence (Q9NYK1 27-1049): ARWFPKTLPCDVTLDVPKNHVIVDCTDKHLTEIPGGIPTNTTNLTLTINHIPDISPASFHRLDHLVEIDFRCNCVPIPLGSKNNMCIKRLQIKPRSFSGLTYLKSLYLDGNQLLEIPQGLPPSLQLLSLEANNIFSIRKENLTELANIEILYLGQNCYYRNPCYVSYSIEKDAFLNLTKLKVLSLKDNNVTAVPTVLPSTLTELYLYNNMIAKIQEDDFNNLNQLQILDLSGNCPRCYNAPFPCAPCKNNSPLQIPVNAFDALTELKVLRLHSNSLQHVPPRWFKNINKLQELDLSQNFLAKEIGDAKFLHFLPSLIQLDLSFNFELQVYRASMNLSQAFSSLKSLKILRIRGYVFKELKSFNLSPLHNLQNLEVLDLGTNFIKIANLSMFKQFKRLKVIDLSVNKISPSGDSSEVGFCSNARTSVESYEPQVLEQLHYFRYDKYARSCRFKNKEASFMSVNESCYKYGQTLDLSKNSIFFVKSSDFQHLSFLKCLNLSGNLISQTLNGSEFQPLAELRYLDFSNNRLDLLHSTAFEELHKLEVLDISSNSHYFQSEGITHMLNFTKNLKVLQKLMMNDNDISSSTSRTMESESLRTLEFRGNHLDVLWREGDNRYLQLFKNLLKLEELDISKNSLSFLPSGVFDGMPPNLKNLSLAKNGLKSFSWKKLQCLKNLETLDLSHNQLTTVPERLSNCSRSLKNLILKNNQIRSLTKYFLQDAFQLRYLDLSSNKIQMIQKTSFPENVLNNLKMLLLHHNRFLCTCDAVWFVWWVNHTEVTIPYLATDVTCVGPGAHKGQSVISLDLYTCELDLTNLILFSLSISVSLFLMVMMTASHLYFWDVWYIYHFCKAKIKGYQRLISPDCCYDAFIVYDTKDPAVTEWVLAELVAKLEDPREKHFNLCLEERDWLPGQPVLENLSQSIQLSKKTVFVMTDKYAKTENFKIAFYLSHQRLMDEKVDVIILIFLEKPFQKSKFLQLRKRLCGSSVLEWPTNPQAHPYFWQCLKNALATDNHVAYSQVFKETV
Assay: Human TLR7 assay (SEAP reporter in HEK293 cells)
Format: cell-based
Details: TLR7 activation, SEAP induction, overnight incubation at 37° C., 0.1% DMSO
Method: The ability of compounds to activate TLR7 in vitro was assessed using the human TLR7 assay described below.
Recombinant human TLR7 was stably expressed in a HEK293 cell line already stably expressing the pNiFty2-SEAP reporter plasmid; integration of the reporter gene was maintained by selection with the antibiotic zeocin. The most common variant sequence of human TLR7 (represented by the EMBL sequence AF240467) was cloned into the mammalian cell expression vector pUNO and transfected into this reporter cell-line. Transfectants with stable expression were selected using the antibiotic blasticidin. In this reporter cell-line, expression of secreted alkaline phosphatase (SEAP) is controlled by an NF-κB/ELAM-1 composite promoter comprising five NF-κB sites combined with the proximal ELAM-1 promoter. TLR signaling leads to the translocation of NF-κB and activation of the promoter results in expression of the SEAP gene. TLR7-specific activation was assessed by determining the level of SEAP produced following overnight incubation of the cells at 37° C. with the standard compound in the presence of 0.1% (v/v) dimethylsulfoxide (DMSO). Concentration dependent induction of SEAP production by compounds was expressed as the concentration of compound which produced half of the maximal level of SEAP induction for that compound (EC50).

SMILES	pEC50
CCCCNc1nc(N)nc(C)c1Cc1ccc(N2CCN(C)CC2=O)cc1OC [Example 1, 1-(4-{[2-Amino-4-(butylamino)-6-methylpyrimidin-5-yl]methyl}-3-methoxyphenyl)-4-methylpiperazin-2-one]	7.20
CCC[C@@H](CCO)Nc1nc(N)nc(C)c1Cc1ccc(N2CCN(C)CC2=O)cc1OC [Example 3, (S)-1-(4-{[2-Amino-4-(1-hydroxyhexan-3-ylamino)-6-methylpyrimidin-5-yl]methyl}-3-methoxyphenyl)-4-methylpiperazin-2-one]	7.60
CCC[C@@H](CCO)Nc1nc(N)nc(C)c1Cc1ccc(N2CCNCC2=O)cc1OC [Example 5, (S)-1-(4-{[2-Amino-4-(1-hydroxyhexan-3-ylamino)-6-methylpyrimidin-5-yl]methyl}-3-methoxyphenyl)piperazin-2-one]	6.90
CCC[C@@H](CO)Nc1nc(N)nc(C)c1Cc1ccc(N2CCN(C)CC2=O)cc1OC [Example 4, (S)-1-(4-{[2-Amino-4-(1-hydroxypentan-2-ylamino)-6-methylpyrimidin-5-yl]methyl}-3-methoxyphenyl)-4-methylpiperazin-2-one]	6.70
CCCCCNc1nc(N)nc(C)c1Cc1ccc(N2CCN(C)CC2=O)cc1OC [Example 2, 1-(4-{[2-Amino-4-methyl-6-(pentylamino)pyrimidin-5-yl]methyl}-3-methoxyphenyl)-4-methylpiperazin-2-one]	7.20
